Experimental data reported in patent publication US8008303B2, “Biphenyl derivatives and their use in treating hepatitis C” (AstraZeneca AB, priority 2005, dated 2011).
Read-outs that look alike come from different tables or passages of the source.

Columns and labels:
[1] = tested on: HCV replicon cells Huh 9B; type: cell-based
[2] = tested on: HCV replicon cells Huh 9B; experiment: HCV replicon assay (luciferase readout); type: cell-based
Outline: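 Compounds, made up at twice final strength (final DMSO 1%), were added to subgenomic replicon cells one day after plating. Incubation then ran 72 h at 37 °C, 5% CO2, without G418. Replication was quantified as firefly luciferase luminescence in lysed cells, with cytotoxicity assessed on a duplicate clear plate.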

[3] = concentration reducing total cell area by 50% relative to DMSO controls, methylene blue, absorbance 620 nm, 72 h incubation
[4] = Hepatitis C virus, 72 h, concentration reducing replicon level (luciferase activity) by 50% vs untreated cell control, 72 h incubation

SMILES	TD50 [1, 3]	IC50 [2, 4] [nM]	TD50 [1]	IC50 [2] [nM]
Cc1ccc(NC(=O)C2CCCCC2)cc1-c1ccc(C(=O)Nc2ccc(CN3CCOCC3)cc2)cc1 [Example 226, 5′-(Cyclohexanecarbonyl-amino)-2′-methyl-biphenyl-4-carboxylic acid (4-morpholin-4-ylmethyl-phenyl)-amide]	* (* < 50 μM)	< 1000		
Cc1ccc(NC(=O)c2ccc(N3CCOCC3)cc2)cc1-c1ccc(C(=O)Nc2cccc(OC(F)(F)F)c2)cc1 [Example 68, 2′-Methyl-5′-(4-morpholin-4-yl-benzoylamino)-biphenyl-4-carboxylic acid (3-trifluoromethoxy-phenyl)-amide]	** (** > 50 μM)	1000 to 5000		
Cc1ccc(C(=O)Nc2ccc(N3CCOCC3)cc2)cc1-c1ccc(C(=O)Nc2cccnc2)cc1 [Example 36, 6-Methyl-biphenyl-3,4′-dicarboxylic acid 3-[(4-morpholin-4-yl-phenyl)-amide] 4′-pyridin-3-ylamide]			* (key: * < 50 μM; ** > 50 μM)	1000 to 5000
Cc1ccc(NC(=O)c2ccc(N3CCOCC3)cc2)cc1-c1ccc(C(=O)Nc2ccc(CN3CCS(=O)(=O)CC3)cc2)cc1 [Example 87, 2′-Methyl-5′-(4-morpholin-4-yl-benzoylamino)-biphenyl-4-carboxylic acid [4-(1,1-dioxo-1lambda*6*-thiomorpholin-4-ylmethyl)-phenyl]-amide]	** (** > 50 μM)	< 1000		
CC(=O)Nc1cccc(NC(=O)c2ccc(-c3cc(C(=O)Nc4ccc(N5CCOCC5)cc4)ccc3C)cc2)c1 [Example 72, 6-Methyl-biphenyl-3,4′-dicarboxylic acid 4′-[(3-acetylamino-phenyl)-amide] 3-[(4-morpholin-4-yl-phenyl)-amide]]			* (key: * < 50 μM; ** > 50 μM)	1000 to 5000
Cc1ccc(NC(=O)C2CC2)cc1-c1ccc(C(=O)Nc2ccccc2CN2CCCCC2)cc1 [Example 224, 5′-(Cyclopropanecarbonyl-amino)-2′-methyl-biphenyl-4-carboxylic acid (2-piperidin-1-ylmethyl-phenyl)-amide]	* (* < 50 μM)	1000 to 5000		
CCOC(=O)c1ccc(-c2cc(C(=O)Nc3ccc(N4CCOCC4)cc3)ccc2C)cc1 [Example 84, 2′-Methyl-5′-(4-morpholin-4-yl-phenylcarbamoyl)-biphenyl-4-carboxylic acid ethyl ester]	** (** > 50 μM)	> 5000		
Cc1ccc(NS(=O)(=O)c2ccc(N3CCOCC3)nc2)cc1-c1ccc(C(=O)Nc2ccc(CN3CCS(=O)(=O)CC3)cc2)cc1 [Example 203, 2′-Methyl-5′-(6-morpholin-4-yl-pyridine-3-sulfonylamino)-biphenyl-4-carboxylic acid [4-(1,1-dioxo-1lambda*6*-thiomorpholin-4-ylmethyl)-phenyl]-amide]	* (* < 50 μM)	1000 to 5000		
CCCS(=O)(=O)N1CCN(Cc2ccc(NC(=O)c3ccc(-c4cc(NC(=O)[C@H]5CCCCN5)ccc4Cl)cc3)cc2)CC1 [Example 251, (R)-Piperidine-2-carboxylic acid {6-chloro-4′-[4-(4-(propane-1-sulfonyl)-piperazin-1-ylmethyl)-phenylcarbamoyl]-biphenyl-3-yl}-amide]	* (* < 50 μM)	< 1000		
Cc1ccc(C(=O)Nc2ccc(N3CCOCC3)cc2)cc1-c1ccc(C(=O)Nc2ccc(CN3CCOCC3)cc2)cc1 [Example 74, 6-Methyl-biphenyl-3,4′-dicarboxylic acid 4′-[(4-morpholin-4-ylmethyl-phenyl)-amide] 3-[(4-morpholin-4-yl-phenyl)-amide]]			* (key: * < 50 μM; ** > 50 μM)	1000 to 5000
Cc1ccc(NC(=O)C2CCCCC2)cc1-c1ccc(C(=O)Nc2ccc(CCN3CCS(=O)(=O)CC3)cc2)cc1 [Example 242, 5′-(Cyclohexanecarbonyl-amino)-2′-methyl-biphenyl-4-carboxylic acid {4-[2-(1,1-dioxo-1lambda*6*-thiomorpholin-4-yl)-ethyl]-phenyl}-amide]	* (* < 50 μM)	1000 to 5000		
Cc1ccc(-c2ccc(C(=O)Nc3ccc(CN4CCS(=O)(=O)CC4)cc3)cc2C)cc1NC(=O)C1CC1 [Example 172, 3′-(Cyclopropanecarbonyl-amino)-2,4′-dimethyl-biphenyl-4-carboxylic acid [4-(1,1-dioxo-1lambda*6*-thiomorpholin-4-ylmethyl)-phenyl]-amide]	* (* < 50 μM)	1000 to 5000		
Cc1ccc(C(=O)Nc2ccc(N3CCOCC3)cc2)cc1-c1ccc(C(=O)NCc2ccc(Cl)c(C(F)(F)F)c2)cc1 [Example 42, 6-Methyl-biphenyl-3,4′-dicarboxylic acid 4′-(4-chloro-3-trifluoromethyl-benzylamide) 3-[(4-morpholin-4-yl-phenyl)-amide]]			** (key: * < 50 μM; ** > 50 μM)	< 1000
Cc1ccc(NC(=O)C2CC2)cc1-c1ccc(C(=O)Nc2cccc(CN(C)C)c2)cc1 [Example 225, 5′-(Cyclopropanecarbonyl-amino)-2′-methyl-biphenyl-4-carboxylic acid (3-dimethylaminomethyl-phenyl)-amide]	* (* < 50 μM)	> 5000		
Cc1ccc(C(=O)Nc2ccc(C)c(-c3ccc(C(=O)Nc4ccc(CN5CCS(=O)(=O)CC5)cc4)cc3)c2)cc1 [Example 160, 2′-Methyl-5′-(4-methyl-benzoylamino)-biphenyl-4-carboxylic acid [4-(1,1-dioxo-1lambda*6*-thiomorpholin-4-ylmethyl)-phenyl]-amide]	* (* < 50 μM)	< 1000		
Cc1ccc(C(=O)Nc2ccc(N3CCOCC3)cc2)cc1-c1ccc(C(=O)NCc2cccc(Br)c2)cc1 [Example 52, 6-Methyl-biphenyl-3,4′-dicarboxylic acid 4′-(3-bromo-benzylamide) 3-[(4-morpholin-4-yl-phenyl)-amide]]			** (key: * < 50 μM; ** > 50 μM)	1000 to 5000
Cc1ccc(NC(=O)c2ccco2)cc1-c1ccc(C(=O)Nc2ccc(N3CCOCC3)cc2)cc1 [Example 18, Furan-2-carboxylic acid [6-methyl-4′-(4-morpholin-4-yl-phenylcarbamoyl)-biphenyl-3-yl]-amide]	* (* < 50 μM)	1000 to 5000		
Cc1ccc(C(=O)Nc2ccc(C(=O)N(C)C)cc2)cc1-c1ccc(C(=O)Nc2ccc(CN3CCS(=O)(=O)CC3)cc2)cc1 [Example 142, 6-Methyl-biphenyl-3,4′-dicarboxylic acid 3-[(4-dimethylcarbamoyl-phenyl)-amide] 4′-{[4-(1,1-dioxo-1lambda*6*-thiomorpholin-4-ylmethyl)-phenyl]-amide}]			* (key: * < 50 μM; ** > 50 μM)	1000 to 5000
Cc1ccc(NC(=O)C2CCCCCC2)cc1-c1ccc(C(=O)Nc2ccc(CN3CCS(=O)(=O)CC3)cc2)cc1 [Example 164, 5′-(Cycloheptanecarbonyl-amino)-2′-methyl-biphenyl-4-carboxylic acid [4-(1,1-dioxo-1lambda*6*-thiomorpholin-4-ylmethyl)-phenyl]-amide]	* (* < 50 μM)	< 1000		
Cc1ccc(NC(=O)c2ccco2)cc1-c1ccc(C(=O)Nc2ccc(CN3CCS(=O)(=O)CC3)cc2)cc1 [Example 153, Furan-2-carboxylic acid {4′-[4-(1,1-dioxo-1lambda*6*-thiomorpholin-4-ylmethyl)-phenylcarbamoyl]-6-methyl-biphenyl-3-yl}-amide]	* (* < 50 μM)	< 1000		
COc1cccc(NC(=O)c2ccc(-c3cc(C(=O)Nc4ccc(N5CCOCC5)cc4)ccc3C)cc2)c1 [Example 33, 6-Methyl-biphenyl-3,4′-dicarboxylic acid 4′-[(3-methoxy-phenyl)-amide] 3-[(4-morpholin-4-yl-phenyl)-amide]]			** (key: * < 50 μM; ** > 50 μM)	< 1000
COc1ccc(C(=O)Nc2ccc(N3CCOCC3)cc2)cc1-c1ccc(C(=O)Nc2ccc(CN3CCN(S(=O)(=O)C(C)C)CC3)cc2)cc1 [Example 258, 6-Methoxy-biphenyl-3,4′-dicarboxylic acid 3-[(4-morpholin-4-yl-phenyl)-amide] 4′-({4-[4-(propane-2-sulfonyl)-piperazin-1-ylmethyl]-phenyl}-amide)]	* (* < 50 μM)			< 1000
Cc1ccc(-c2noc(C(C)C)n2)cc1-c1ccc(C(=O)Nc2ccc(CN3CCS(=O)(=O)CC3)cc2)cc1 [Example 207, 5′-(5-Isopropyl-[1,2,4]oxadiazol-3-yl)-2′-methyl-biphenyl-4-carboxylic acid [4-(1,1-dioxo-1lambda*6*-thiomorpholin-4-ylmethyl)-phenyl]-amide]	* (* < 50 μM)	> 5000		
Cc1ccc(CNC(=O)c2ccc(-c3cc(C(=O)Nc4ccc(N5CCOCC5)cc4)ccc3C)cc2)cc1Cl [Example 43, 6-Methyl-biphenyl-3,4′-dicarboxylic acid 4′-(3-chloro-4-methyl-benzylamide) 3-[(4-morpholin-4-yl-phenyl)-amide]]			** (key: * < 50 μM; ** > 50 μM)	< 1000
CCCS(=O)(=O)N1CCN(Cc2ccc(NC(=O)c3ccc(-c4cc(C(=O)Nc5ccc(N6CCOCC6)c(F)c5)ccc4Cl)cc3)cc2)CC1 [Example 264, 6-Chloro-biphenyl-3,4′-dicarboxylic acid 3-[(3-fluoro-4-morpholin-4-yl-phenyl)-amide] 4′-({4-[4-(propane-1-sulfonyl)-piperazin-1-ylmethyl]-phenyl}-amide)]	* (* < 50 μM)			< 1000
COc1ccc(NC(=O)c2ccc(-c3cc(C(=O)Nc4ccc(N5CCOCC5)cc4)ccc3C)cc2)cn1 [Example 2, 6-Methyl-biphenyl-3,4′-dicarboxylic acid 4′-[(6-methoxy-pyridin-3-yl)-amide] 3-[(4-morpholin-4-yl-phenyl)-amide]]			** (key: * < 50 μM; ** > 50 μM)	1000 to 5000
